Blank lines part the entries; values can stand above or below the compound they belong to.
What was measured:
[1] = Pharmacokinetic study of mice via intravenous injection and oral administration; assay type: in vivo; conditions: mouse, male CD-1 mice, plasma, a: mixed blood samples, b: mean of individual samples
Procedure: Plasma samples from male C57BL/6J mice or male CD-1 mice after intravenous injection and oral administration dosing with the tested compound, were collected from the orbital venous plexus at 8-9 time points (e.g., 5 min, 15 min, 30 min, 1 h, 2 h, 4 h, 7 h, 24 h or 5 min, 15 min, 30 min, 1 h, 2 h, 4 h, 6 h, 8 h, 24 h). The collected blood samples were transferred to microcentrifuge tubes containing EDTA-K2 anticoagulant, centrifuged at 4000 g and 4°C for 5 min. The resulting supernatant was pipetted and stored in a -75°C ± 15°C refrigerator . The compound concentrations in plasma samples at different time points were determined via LC-MS/MS, and the relevant pharmacokinetic parameters were calculated using WinNonlin software. Table 3-1 Pharmacokinetic determination results of the representative compounds of the present disclosure

HCC1395 = test: Inhibitory effect on cell line proliferation detected by CTG assay; assay type: cell-based; conditions: Homo sapiens, 168 h; HCC1395 cells, 7 days, CellTiter-Glo
Procedure: The relevant assays were performed in 3 84-well plates or 96-well plates. The detailed procedure is as follows: The tested cell suspension was added into 384-well or 96-well plates (excluding peripheral wells) (384-well plate: 50 µL; 96-well plate: 100 µL), and the plates were incubated in a carbon dioxide incubator overnight; specifically, HCC1395 and HCC1428 cells were incubated in a 5% carbon dioxide incubator at 37°C overnight. The tested compounds (9-10 compound concentration gradients via 3-fold serial dilution) were added into the corresponding well by a HPD300 micro-dosing instrument. The cell plates were incubated in a carbon dioxide incubator for 7 days; specifically, for HCC1395 and HCC1428 cells, maintaining the incubation condition at 5% carbon dioxide and 37°C throughout this period. On the day of detection, firstly, the 384-well or 96-well plates were equilibrated at room temperature for 10-30 minutes, and then CellTiter-Glo reagent was added into each plate (384-well plate: 25 µL; 96-well plate: 100 µL), the plates were shaked for 10 minutes in the dark place, and incubated for another 10 minutes. The plates were placed into the Victor NIVO microplate reader for measurement. The efficacy inhibition rate curves were ploted using XLFit software and the IC50 values were calculated. Table 2 Anti-proliferative activity assay results of the representative compounds of the present disclosure against cell lines

PARG (389-976) = biological target: T1, PARG (389-976) (Homo sapiens, UniProt Q86W56); test: PARG enzyme inhibition assay (TR-FRET); assay type: biochemical; conditions: PARG 1.5 pM, Bio PARylated His-TEV-PARP1 substrate 12 nM
T1 construct: 5 µL of PARG (389-976) (manufactured by ChemPartner Co., Ltd.) was added into the 384-well plate; purchased ChemPartner Co., Ltd
Procedure: The in vitro PARG assay experiment was performed in a standard 384-well plate with a total reaction volume of 15 µL. In a buffer solution (50 mM Tris-HCl pH 7.5, 30 mM KCl, 1 mM EDTA, 3 mM DTT, 0.01% Tween-20, 0.025% BSA), 5 µL of PARG (389-976) (manufactured by ChemPartner Co., Ltd.) was added into the 384-well plate containing test compounds (with various concentrations) to obtain a final concentration of 1.5 pM, followed by incubation at room temperature for 30 minutes. Subsequently, 5 µL of Bio PARylated His-TEV-PARP1 (2-1014) substrate (manufactured by ChemPartner Co., Ltd.) was added into the above reaction mixture to obtain a final concentration of 12 nM, and the reaction was carried out at room temperature for 30 minutes after the addition was completed. Then, 5 µL of detection reagent was added. The detection reagent was prepared by buffer solution (50 mM Tris-HCl pH 7.5, 30 mM KCl, 1 mM EDTA, 3 mM DTT, 0.01% Tween-20, 0.025% BSA) consisting of 3 µM compound PDD00017273, 9 nM Mab anti-6HIS XL665 (Cisbio: 61HISXLA) and 0.9 nM streptavidin cryptate (Cisbio: 610SATLA). All three components were used at 3X working concentration, corresponding to final concentrations of 1 µM, 3 nM and 0.3 nM, respectively. After incubation at room temperature for 120 minutes in the dark place, the TR-FRET signals were measured at an excitation wavelength (Ex) of 340 nm, emission wavelengths (Em) of 665 nm and 615 nm. The ratio for each well was calculated as Em 665 / Em 615, and the compound inhibition rate was determined based on the obtained data. Table 1 Biochemical activity against PARG of the representative compounds of the rresent invention

[2] = test system: HCC1428 cell-derived tumors; test: In vivo pharmacodynamic study, subcutaneously implanted HCC1428 tumor model; conditions: 30 mg/kg PO, BID*28; BALB/c nude mice with subcutaneous HCC1428 tumors; start at average tumor volume 195 mm^3
Procedure: Estrogen was administered to BALB/c nude mice via injection twice weekly until the end of the experiment, subcutaneous inoculation with 1×10^7 HCC1428 cells (suspended in 100 µL of RPMI medium supplemented with Matrigel at a 1:1 volume ratio). Grouping and drug administration were initiated when the average tumor volume reached 150-200 mm^3. During the experiment, the body weight of the mice and tumor size were measured twice weekly, and the clinical symptoms of the animals were observed and recorded daily. The length (a) and width (b) of the tumors were measured using a vernier caliper, and the tumor volume was calculated according to the formula: TV = a×b^2/2. The tumor growth inhibition rate (TGI, %) was calculated based on the tumor volume using the formula: TGI (%) = [1 - (Ti - T0)/ (Vi - V0)] ×100%, wherein Ti represents the mean tumor volume of the treatment group on the i-th day after grouping, T0 represents the mean tumor volume of the treatment group at the time of grouping, Vi represents the mean tumor volume of the vehicle control group on the i-th day after grouping, and V0 represents the mean tumor volume of the vehicle control group at the time of grouping.

[3] = Intravenous administration (5mg/kg)
[4] = in vivo, Intravenous administration (5mg/kg)
[5] = in vivo, Oral administration (10mg/kg)

T1 sequence (Q86W56 389-976): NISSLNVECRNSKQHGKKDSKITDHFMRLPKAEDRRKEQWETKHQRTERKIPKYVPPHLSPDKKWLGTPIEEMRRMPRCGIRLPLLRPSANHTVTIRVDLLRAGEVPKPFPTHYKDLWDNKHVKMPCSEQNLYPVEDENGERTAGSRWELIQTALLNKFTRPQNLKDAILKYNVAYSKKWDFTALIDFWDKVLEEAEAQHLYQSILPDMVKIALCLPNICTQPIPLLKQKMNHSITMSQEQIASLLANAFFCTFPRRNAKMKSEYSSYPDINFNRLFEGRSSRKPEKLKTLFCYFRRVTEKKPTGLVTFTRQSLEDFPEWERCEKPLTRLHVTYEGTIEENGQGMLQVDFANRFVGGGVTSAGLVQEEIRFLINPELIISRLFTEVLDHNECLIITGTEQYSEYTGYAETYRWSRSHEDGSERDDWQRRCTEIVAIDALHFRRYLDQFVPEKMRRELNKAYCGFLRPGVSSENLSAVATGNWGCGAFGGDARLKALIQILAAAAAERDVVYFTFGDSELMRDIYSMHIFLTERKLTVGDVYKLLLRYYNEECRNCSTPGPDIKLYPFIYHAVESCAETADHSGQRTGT

SMILES: CC(C)S(=O)(=O)N1CC=C(c2c(F)c(S(=O)(=O)NC3(C#N)CC3)cc3c(-c4nnc(C(F)(F)F)s4)nn(C)c23)CC1 [Compound 1]
AUC(0-inf) [1, 3]: 44100 ng·h/mL
AUC(0-t) [1, 3]: 44000 ng·h/mL
clearance [1, 3]: 1.89 mL/min/kg
AUC(0-inf) ([1]; Oral administration (10mg/kg)): 32800 ng·h/mL
AUC(0-t) ([1]; Oral administration (10mg/kg)): 32800 ng·h/mL
Cmax ([1]; Oral administration (10mg/kg)): 4320 ng/mL
IC50 (HCC1395): 0.0949 µM
IC50 (PARG (389-976)): 0.23 nM
Tumor Growth Inhibition Rate TGI (%) [2]: 106.8%

SMILES: CC1=C(c2c(F)c(S(=O)(=O)NC3(C#N)CC3)cc3c(-c4nnc(C(F)(F)F)s4)nn(C)c23)CCN(S(=O)(=O)C(C)C)C1 [Compound 2]
AUC(0-inf) [1, 3]: 50100 ng·h/mL
AUC(0-t) [1, 3]: 49600 ng·h/mL
clearance [1, 3]: 1.68 mL/min/kg
AUC(0-inf) ([1]; Oral administration (10mg/kg)): 46900 ng·h/mL
AUC(0-t) ([1]; Oral administration (10mg/kg)): 46700 ng·h/mL
Cmax ([1]; Oral administration (10mg/kg)): 5370 ng/mL
IC50 (HCC1395): 0.0368 µM
IC50 (PARG (389-976)): 0.3 nM

SMILES: CC(C)S(=O)(=O)N1CC=C(c2c(F)c(S(=O)(=O)NC3(C#N)CC3)cc3c(-c4nnc(C(F)F)s4)nn(C)c23)CC1 [Compound 3]
AUC(0-inf) [1, 3]: 33700 ng·h/mL
AUC(0-t) [1, 3]: 33700 ng·h/mL
clearance [1, 3]: 2.47 mL/min/kg
AUC(0-inf) ([1]; Oral administration (10mg/kg)): 12000 ng·h/mL
AUC(0-t) ([1]; Oral administration (10mg/kg)): 12000 ng·h/mL
Cmax ([1]; Oral administration (10mg/kg)): 3300 ng/mL
IC50 (HCC1395): 0.0992 µM
IC50 (PARG (389-976)): 0.19 nM

SMILES: CC1=C(c2c(F)c(S(=O)(=O)NC3(C#N)CC3)cc3c(-c4nnc(C(F)F)s4)nn(C)c23)CCN(S(=O)(=O)C(C)C)C1 [Compound 4]
AUC(0-inf) [1, 3]: 20300 ng·h/mL
AUC(0-t) [1, 3]: 18400 ng·h/mL
clearance [1, 3]: 4.17 mL/min/kg
AUC(0-inf) ([1]; Oral administration (10mg/kg)): 11300 ng·h/mL
AUC(0-t) ([1]; Oral administration (10mg/kg)): 11000 ng·h/mL
Cmax ([1]; Oral administration (10mg/kg)): 2010 ng/mL
IC50 (HCC1395): 0.0445 µM
IC50 (PARG (389-976)): 0.48 nM

SMILES: CC1=C(c2c(F)c(S(=O)(=O)NC3(C)CC3)cc3c(-c4nnc(C(F)(F)F)s4)nn(C)c23)CCN(S(=O)(=O)C(C)C)C1 [Compound 5]
IC50 (HCC1395): 0.043 µM
IC50 (PARG (389-976)): 0.43 nM

IC50 (HCC1395): 0.0913 µM
IC50 (PARG (389-976)): 0.35 nM
SMILES: CC(C)S(=O)(=O)N1CC=C(c2c(F)c(S(=O)(=O)NC3(C)CC3)cc3c(-c4nnc(C(F)(F)F)s4)nn(C)c23)CC1 [Compound 6]

SMILES: CC(C)S(=O)(=O)N1CC=C(c2c(F)c(S(=O)(=O)NC3(C)CC3)cc3c(-c4nnc(C(F)F)s4)nn(C)c23)CC1 [Compound 7]
IC50 (HCC1395): 0.074 µM
IC50 (PARG (389-976)): 0.21 nM

SMILES: CC1=C(c2c(F)c(S(=O)(=O)NC3(C)CC3)cc3c(-c4nnc(C(F)F)s4)nn(C)c23)CCN(S(=O)(=O)C(C)C)C1 [Compound 8]
IC50 (HCC1395): 0.0322 µM
IC50 (PARG (389-976)): 0.17 nM

SMILES: CC(C)C(=O)N1CC=C(c2c(F)c(S(=O)(=O)NC3(C#N)CC3)cc3c(-c4nnc(C(F)F)s4)nn(C)c23)CC1 [Compound 9]
AUC(0-inf) [1, 3]: 8560 ng·h/mL
AUC(0-t) [1, 3]: 8550 ng·h/mL
clearance [1, 3]: 9.8 mL/min/kg
AUC(0-inf) ([1]; Oral administration (10mg/kg)): 11500 ng·h/mL
AUC(0-t) ([1]; Oral administration (10mg/kg)): 11500 ng·h/mL
Cmax ([1]; Oral administration (10mg/kg)): 6160 ng/mL
IC50 (HCC1395): 0.0446 µM
IC50 (PARG (389-976)): 0.56 nM

SMILES: CC(C)C(=O)N1CC=C(c2c(F)c(S(=O)(=O)NC3(C#N)CC3)cc3c(-c4nnc(C(F)(F)F)s4)nn(C)c23)CC1 [Compound 10]
IC50 (PARG (389-976)): 1.24 nM

SMILES: CC(C)C(=O)N1CC=C(c2c(F)c(S(=O)(=O)NC3(C)CC3)cc3c(-c4nnc(C(F)F)s4)nn(C)c23)CC1 [Compound 11]
IC50 (PARG (389-976)): 0.7 nM

AUC(0-inf) [1, 4]: 35900 ng·h/mL
AUC(0-t) [1, 4]: 35900 ng·h/mL
clearance [1, 4]: 2.32 mL/min/kg
AUC(0-inf) [1, 5]: 25400 ng·h/mL
AUC(0-t) [1, 5]: 25400 ng·h/mL
Cmax [1, 5]: 2500 ng/mL
IC50 (HCC1395): 0.0313 µM
SMILES: CCC1=C(c2c(F)c(S(=O)(=O)NC3(C#N)CC3)cc3c(-c4nnc(C(F)(F)F)s4)nn(C)c23)CCN(S(=O)(=O)C(C)C)C1 [Compound 13]

— EP4782447A1, “HETEROAROMATIC SULFONAMIDE STRUCTURAL COMPOUND, PHARMACEUTICAL COMPOSITION THEREOF, AND USE THEREOF” (Shanghai Yingli Pharmaceutical Co., Ltd, priority 2023, dated 2025)
